Test results as given in patent US20170252338A1, “MEDICINE” (KOWA COMPANY, LTD., priority 2014, published 2017).

How the values were obtained:
[1] = Thermal stability test (residual ratio by HPLC after storage in glass bottles); assay type: physicochemical; conditions: for Residual ratio (%) After storage at 80° C. for 72 hours / Residual ratio (%) After storage at 100° C. for 24 hours / Residual ratio (%) After storage at 120° C. for 16 hours: glass bottles, HPLC area percentage
Experimental: A test compound was introduced into glass bottles, and the bottles were stored for certain time periods under temperature conditions of 80° C., 100° C., or 120° C. Subsequently, the residual ratio (%) of the pyrimidine compound (1) in the test compound was measured. Regarding the residual ratio, the proportion of the pyrimidine compound (1) contained in the test compound was measured as the peak area percentage using high performance liquid chromatography. In regard to the measurement by high performance liquid chromatography, an ODS column was used as a column, and a mixture of two kinds, namely, a 0.1% aqueous solution of TFA and a 0.1% acetonitrile solution of TFA, was used as a solvent. The detection wavelength was 242 nm. The residual ratio was calculated by the following calculation expression from the area percentage of the pyrimidine compound (1) thus obtained. Residual ratio (%)=Area percentage of pyrimidine compound (1) after storage/area percentage of pyrimidine compound (1) before storage×100 As the test compound, the crystals (crystals of pyrimidine compound (1) hydrochloride) obtained in Reference Example 1-3, and the free form of the pyrimidine compound (1) were used.

[2] = test system: LDL cholesterol in blood plasma; assay: Evaluation of combined use of statin and CETP inhibitor: blood plasma LDL cholesterol after two weeks oral administration in guinea pigs; assay type: in vivo, guinea pigs (Slc: Hartley); conditions: for Amount of LDL cholesterol in blood plasma: male guinea pigs, average ± standard deviation; for Amount of LDL cholesterol in blood plasma / Plasma LDL cholesterol lowering ratio: oral, two weeks
Experimental: Male guinea pigs (six weeks old, Slc: Hartley, Japan SLC, Inc.) were used for the experiment. Blood was collected from the jugular vein, and the guinea pigs were grouped on the basis of the total plasma cholesterol level and body weight.
After completion of repeated administration, blood was collected under anesthesia with pentobarbital, and the amount of LDL cholesterol in blood plasma (mg/dl. Hereinafter, described as “amount of LDL cholesterol in blood plasma”) was measured using high performance liquid chromatography according to the method by Usui, et al. (Usui et al., Clin. Chem., 46, 63-72 (2000)).
The group configuration consisted of the following four items, and six guinea pigs were used for each group.
(2) Pitavastatin single administration group: Pitavastatin calcium pentahydrate was orally administered at a dose of 1 mg/kg of body weight.
The amount of LDL cholesterol in blood plasma was obtained as an average value ±standard deviation.
Furthermore, the proportions of lowering of LDL cholesterol in blood plasma in the various drug administration groups (“plasma LDL cholesterol lowering ratios”) were calculated by the expression described below, from the average values of the amounts of LDL cholesterol in blood plasma of the control group and the various drug administration groups.
Plasma LDL cholesterol lowering ratio (%)=[(Cc−Ct)/Cc]×100
wherein Cc represents the average value of the amount of LDL cholesterol in blood plasma in the control group; and Ct represents the average value of the amount of LDL cholesterol in blood plasma of each of the various drug administration groups.
Furthermore, the average values of the amounts of LDL cholesterol in blood plasma of each of the various drug administration groups in a case in which the average value of the amount of LDL cholesterol in blood plasma of the control group was designated as 1, were calculated as relative indices.
Furthermore, determination of a synergistic effect according to Bulge formula was implemented.

[3] = Test Example 1-2, control group designated as 1, pitavastatin 1 mg/kg, anacetrapib 30 mg/kg
[4] = Test Example 1-2, pitavastatin 1 mg/kg, anacetrapib 30 mg/kg, control 18.5 ± 4.8
[5] = Test Example 1-2, vs control group, pitavastatin 1 mg/kg, anacetrapib 30 mg/kg
[6] = Test Example 1-1, [(Cc−Ct)/Cc]×100 vs control group, pitavastatin 1 mg/kg, pyrimidine compound (1) 30 mg/kg
[7] = Test Example 1-1, average plasma LDL cholesterol with control group designated as 1, pitavastatin 1 mg/kg, pyrimidine compound (1) 30 mg/kg
[8] = Test Example 1-1, pitavastatin calcium pentahydrate 1 mg/kg, pyrimidine compound (1) monohydrochloride 30 mg/kg, six per group, control 22.4 ± 2.9

Residual ratio (%) After storage at 80° C. for 72 hours [1] | Residual ratio (%) After storage at 100° C. for 24 hours [1] | Residual ratio (%) After storage at 120° C. for 16 hours [1] | Thermal stability ([1]; conclusion from Table 10) | Structure (SMILES) | Relative index [2, 3] | Amount of LDL cholesterol in blood plasma [2, 4] | Plasma LDL cholesterol lowering ratio [2, 5] | Plasma LDL cholesterol lowering ratio [2, 6] | Relative index [2, 7] | Amount of LDL cholesterol in blood plasma [2, 8]
100.0% | 100.0% | 99.5% | excellent thermal stability | CCN(C[C@H]1CC[C@H](CC(=O)O)CC1)c1ccc(C(F)(F)F)cc1CN(c1ncc(OCCS(C)(=O)=O)cn1)[C@@H](C)c1cc(C(F)(F)F)cc(C(F)(F)F)c1.Cl [(S)-trans-{4-[({2-[({1-[3,5-bis(trifluoromethyl)phenyl]ethyl}{5-[2-(methylsulfonyl)ethoxy]pyrimidin-2-yl}amino)methyl]-4-(trifluoromethyl)phenyl}(ethyl)amino)methyl]cyclohexyl}acetic acid hydrochloride] | – | – | – | – | – | –
– | – | – | – | COc1cc(F)c(C(C)C)cc1-c1ccc(C(F)(F)F)cc1CN1C(=O)O[C@H](c2cc(C(F)(F)F)cc(C(F)(F)F)c2)[C@@H]1C [Anacetrapib] | 0.98 | 18.2 ± 4.1 mg/dL | 2% | – | – | –
99.5% | 89.3% | 71.5% | – | CCN(C[C@H]1CC[C@H](CC(=O)O)CC1)c1ccc(C(F)(F)F)cc1CN(c1ncc(OCCS(C)(=O)=O)cn1)[C@@H](C)c1cc(C(F)(F)F)cc(C(F)(F)F)c1 [Free form of pyrimidine compound (1), (S)-trans-{4-[({2-[({1-[3,5-bis(trifluoromethyl)phenyl]ethyl}{5-[2-(methylsulfonyl)ethoxy]pyrimidin-2-yl}amino)methyl]-4-(trifluoromethyl)phenyl}(ethyl)amino)methyl]cyclohexyl}acetic acid] | – | – | – | – | – | –
– | – | – | – | O=C(O)C[C@H](O)C[C@H](O)/C=C/c1c(C2CC2)nc2ccccc2c1-c1ccc(F)cc1 [Pitavastatin, (+)-monocalcium is[(3R,5S,6E)-7-[2-cyclopropyl-4-(4-fluorophenyl)-3-quinolyl]-3,5-dihydroxy-6-heptenoate}] | 0.62 | 11.5 ± 3.3 mg/dL | 38% | 31% | 0.69 | 15.5 ± 3.9 mg/dL
– | – | – | – | CCN(C[C@H]1CC[C@H](CC(=O)O)CC1)c1ccc(C(F)(F)F)cc1CN(c1ncc(OCCS(C)(=O)=O)cn1)[C@@H](C)c1cc(C(F)(F)F)cc(C(F)(F)F)c1 [Pyrimidine compound (1), (S)-trans-{4-[({2-[({1-[3,5-bis(trifluoromethyl)phenyl]ethyl}{5-[2-(methylsulfonyl)ethoxy]pyrimidin-2-yl}amino)methyl]-4-(trifluoromethyl)phenyl}(ethyl)amino)methyl]cyclohexyl}acetic acid] | – | – | – | 16% | 0.84 | 18.9 ± 3.8 mg/dL
